In assay [1] the test system is CHOP promoter-luciferase (CHOP-Luc) reporter. Briefly: CHOP-Luc reporter assay in HEK293 cells (Bright-Glo). The format is cell-based, human. Conditions: 10 μM, 24 h. In general terms: In a reporter assay the amount or activity of a reporter protein is the signal.
Description: To identify compounds that activate the expression of CHOP, a HEK293 cell line stably expressing a CHOP-Luc reporter construct that faithfully reflects endogenous CHOP gene expression^21 was used to screen approximately 50,000 structurally diverse small molecules.
HEK293T CHOP-Luc cells were seeded at 7×10^3 cells/well in 384-well plates and treated with 10 μM of the library compounds the next day. After 24 h treatment, the medium was aspirated and 20 μL/well of Bright-Glo luciferase assay reagent was added. Luminescence was measured with an EnVision multilabel plate reader (PerkinElmer, Waltham, Mass., US). Hit selection was based on standard scores. The mean and standard deviation (SD) of luminescence for each compound was determined, and the standard score for each compound was then calculated as (raw measurement of a compound−mean)/SD of the plate. Compounds that increased ATP levels >3 SD compared with control wells (standard score >3) were considered hits.
Another assay deals with endogenous CHOP gene. Briefly: Endogenous CHOP mRNA by qRT-PCR in HEK293 cells. The format is cell-based, human. As to conditions: 10 μM, 24 h. A general note: Quantitative PCR measures a nucleic acid by following its amplification.
For another assay, the system named is HCC-1806 cells. Briefly: Cell viability, CellTiter-Glo, HCC-1806. The assay is classed as cell-based. Conditions: Homo sapiens, HCC1806; 0.125 μM to 20 μM, CellTiter-Glo; read-out: IC50 cell viability HCC-1806. As for the experimental part: (§1) Given the known functions of CHOP in ER stress-induced apoptosis^16, 17 and in regulating cancer cell death,^6, 19, 20 the inventor investigated whether compound 1 affects the viability of TNBC cells. Three human TNBC cell lines, HCC-1806, HCC-1143, and HCC-38, were treated with doses of 1 ranging from 0.125 μM to 20 μM and their viability was assessed using the CellTiter-Glo assay, which measures intracellular ATP levels.
(§2) HCC-1806, HCC-1143, or HCC-38 cells were seeded at 3×10^3 cells/well in a 384-well plate and treated with compounds at the indicated concentrations. After 3 d treatment, the medium was aspirated and 20 μL/well of CellTiter-Glo reagent was added. Cell viability was measured with an EnVision multilabel plate reader. The IC50 value for cell viability of each compound was calculated with GraphPad Prism (La Jolla, Calif., US).
(In general: Cellular ATP, detected with luciferase, serves as a proxy for viable cell number.)

For the next assay, the system named is HCC-1143 cells. Briefly: Cell viability, CellTiter-Glo, HCC-1143. The assay is classed as cell-based. Conditions: Homo sapiens, HCC1143; 0.125 μM to 20 μM, CellTiter-Glo; read-out: IC50 cell viability HCC-1143. How it is done:
as §1, §2

Another assay relates to HCC-38 cells. The assay is described as follows: Cell viability, CellTiter-Glo, HCC-38. The format is cell-based. Conditions: Homo sapiens, HCC38; 0.125 μM to 20 μM, CellTiter-Glo; read-out: IC50 cell viability HCC-38. As for the experimental part:
as §1, §2

In assay [2] the test system is XBP1 mRNA splicing (IRE1α pathway). The assay is described as follows: XBP1 mRNA splicing by RT-PCR in HCC-1806 cells. The format is cell-based, human. As to conditions: HCC-1806, tunicamycin 1 μg/mL, at 8 h. How it is done: FIG. 3E is a graph showing XBP1 mRNA levels in HCC-1806 cells treated with tunicamycin or a 5-nitrofuran-2-amide derivative compound 3d. HCC-1806 cells were treated with compound 3d (10 μM) or tunicamycin (Tm, 1 μg/mL) for the indicated times. XBP1 mRNA levels were analyzed by RT-PCR and the products were resolved by agarose gel electrophoresis. The full-length (unspliced, XBP1u) and spliced (XBP1s) forms of XBP1 mRNA are indicated. GAPDH mRNA was used as an internal control.
The percentage of XBP1s relative to total XBP1 was calculated as: (XBP1s/[XBP1s+XBP1u])×100%. The data shown are representative of 3 independent studies.
The inventor next asked whether the IRE1α and ATF6 branches of the unfolded protein response were also activated by compound 3d treatment of TNBC cells. […] XBP1 mRNA splicing, as measured by XBP1s levels, increased only slightly in the first 24 h after compound 3d treatment of HCC-1806 cells (from 11% of total XBP1 at 0 h to 15˜20% at 2˜24 h). […] Next, it was determined whether compound 3d activates the ATF6 pathway by evaluating its effect on the activity of an ER stress response elements (ERSE)-Luc reporter stably established in HEK293 cell line. […]

In assay [3] the test system is UPRE-Luciferase (UPRE-Luc) reporter. The assay is described as follows: UPRE-Luc reporter assay in HEK293 cells. The assay is classed as cell-based, human. As to conditions: 3d 10 μM or Tm 1 μg/mL, 24 h. How it is done:
(§3) FIG. 3G is a graph showing HEK293 cells stably expressing CHOP-Luc, ERSE-Luc, or UPRE-luc reporters were treated with DMSO, a 5-nitrofuran-2-amide derivative, or tunicamycin. HEK293 cells stably expressing CHOP-Luc, ERSE-Luc, or UPRE-luc reporters were treated with DMSO, compound 3d (10 μM), or Tm (1 μg/mL) for 24 h, and luciferase activity was measured using the Bright-Glo assay. Results are the means of 4 replicate wells and are representative of 3 independent experiments.
(§4) The inventor next asked whether the IRE1α and ATF6 branches of the unfolded protein response were also activated by compound 3d treatment of TNBC cells. […] XBP1 mRNA splicing, as measured by XBP1s levels, increased only slightly in the first 24 h after compound 3d treatment of HCC-1806 cells (from 11% of total XBP1 at 0 h to 15˜20% at 2˜24 h). […] Next, it was determined whether compound 3d activates the ATF6 pathway by evaluating its effect on the activity of an ER stress response elements (ERSE)-Luc reporter stably established in HEK293 cell line.
(§5) The HEK293T CHOP reporter cell line (CHOP-Luc) was previously described.^21 HEK293T cells were stably transfected with ERSE-Luciferase^25 and UPRE-Luciferase^23 reporters to generate ERSE-Luc and UPRE-Luc reporter cell lines, respectively. […] Luciferase activity was measured with a Bright-Glo kit 24 h later.

For assay [4], the system named is ER stress response elements (ERSE)-Luc reporter. Briefly: ERSE-Luc reporter assay in HEK293 cells. The assay is classed as cell-based, human. Conditions: Tm 1 μg/mL, 24 h. As for the experimental part:
as §3, §4, §5

Results on two compounds are retold here after US20180360799A1, “Nitrofuran Derivatives That Induce Apoptosis in Breast Cancer Cells by Activating Protein Expression” (Oklahoma Medical Research Foundation, priority 2015, published 2018).

pIC50: −log10 of the molar value. Where only a bound is given, the exact number is not on record here.

Excerpt for endogenous CHOP gene: The primer sequences used were: Human CHOP: SEQ ID NO: 1 F, 5′-[sequence]-3′ and SEQ ID NO: 2 R, 5′-[sequence]-3′. Human ATF4: SEQ ID NO: 3 F, 5′-[sequence]-3′ and SEQ ID NO: 4 R, 5′-[sequence]-3′. […] Human Cyclophilin A: SEQ ID NO: 7 F, 5′-[sequence]-3′ and SEQ ID NO: 8 R, 5′-[sequence]-3′. Human GAPDH: SEQ ID NO: 9 F, 5′-[sequence]-3′ and SEQ ID NO: 10 R, 5′-[sequence]-3′.

Turning to `O=C(Nc1ccc(I)cc1)c1ccc([N+](=O)[O-])o1` [Compound 1, N-(4-iodophenyl)-5-nitrofuran-2-carboxamide], the “increase of CHOP-Luc reporter activity” value in assay [1] turned out to be 24 fold. In addition, the “increase of mRNA level of the endogenous CHOP gene” value in the assay with endogenous CHOP gene is listed as “up to 30 fold”. Also, the pIC50 (usually the negative decadic logarithm of the IC50, by convention in mol/L) in the assay with HCC-1806 cells is 5.21; with HCC-1143 cells, 5.02; in the assay on HCC-38 cells it was 5.06.

Regarding tunicamycin [reference compound], the “XBP1s, percentage of total XBP1” value in assay [2] is listed as around 87%. Moreover, in assay [3], the “increase of UPRE-Luc luciferase activity” value is above 25 fold. Besides, in assay [4], the “increase of ERSE-driven luciferase activity” value is recorded as around 12 fold.
